How the values were obtained:
HERG = HERG (Homo sapiens, UniProt Q12809); conditions: 20 min
Method: (§1) The rat KCR1 cDNA was provided by Dr. Haruhiro Higashida, Kanazawa University, Japan. […] MiRP1 cDNA was provided by Dr. Steve Goldstein, (Yale University) in vector pCl-neo (Promega of Madison, Wis.).
(§2) Chinese hamster ovary K1 (CHO-K1) cells were obtained from the American Type Culture Collection (Rockville, Md.) and cultured in Ham's F-12 media (Gibco-BRL of Grand Island, N.Y.) supplemented with 10% fetal bovine serum and 1% pen-strep in a humidified, 5% CO2 incubator at 37° C. CHO-K1 cells were transiently transfected using the Lipofectamine transfection reagents and method (Gibco-BRL). When studying HERG alone or HERG+MiRP1, cells were cotransfected with pGFP-IRS (without KCR1). For experiments examining HERG+KCR1, or HERG+KCR1+MiRP1, GFP expression was obtained via the KCR1-containing pGFP-IRS plasmid. In all cases, cells displaying green fluorescence 48 to 72 hours after transfection were subjected to electrophysiologic analysis.
(§3) Potassium currents were recorded at room temperature (20-22° C.) using the whole-cell patch clamp technique. […] Drug effects were recorded in cells following a pre-drug period where control data were obtained (during pulsing), and a 4 minute drug wash-in period throughout which the cell was held at −80 mV.

HERG+KCR1 = HERG+KCR1 (Homo sapiens, UniProt Q12809); conditions: 20 min
Method: as §1, §2, §3

[1] = target: HERG/MiRP1 complex (human); experiment: cell-based or functional assay
HERG/MiRP1 complex (human), sequence (A5H1P7 whole entry, one chain of several): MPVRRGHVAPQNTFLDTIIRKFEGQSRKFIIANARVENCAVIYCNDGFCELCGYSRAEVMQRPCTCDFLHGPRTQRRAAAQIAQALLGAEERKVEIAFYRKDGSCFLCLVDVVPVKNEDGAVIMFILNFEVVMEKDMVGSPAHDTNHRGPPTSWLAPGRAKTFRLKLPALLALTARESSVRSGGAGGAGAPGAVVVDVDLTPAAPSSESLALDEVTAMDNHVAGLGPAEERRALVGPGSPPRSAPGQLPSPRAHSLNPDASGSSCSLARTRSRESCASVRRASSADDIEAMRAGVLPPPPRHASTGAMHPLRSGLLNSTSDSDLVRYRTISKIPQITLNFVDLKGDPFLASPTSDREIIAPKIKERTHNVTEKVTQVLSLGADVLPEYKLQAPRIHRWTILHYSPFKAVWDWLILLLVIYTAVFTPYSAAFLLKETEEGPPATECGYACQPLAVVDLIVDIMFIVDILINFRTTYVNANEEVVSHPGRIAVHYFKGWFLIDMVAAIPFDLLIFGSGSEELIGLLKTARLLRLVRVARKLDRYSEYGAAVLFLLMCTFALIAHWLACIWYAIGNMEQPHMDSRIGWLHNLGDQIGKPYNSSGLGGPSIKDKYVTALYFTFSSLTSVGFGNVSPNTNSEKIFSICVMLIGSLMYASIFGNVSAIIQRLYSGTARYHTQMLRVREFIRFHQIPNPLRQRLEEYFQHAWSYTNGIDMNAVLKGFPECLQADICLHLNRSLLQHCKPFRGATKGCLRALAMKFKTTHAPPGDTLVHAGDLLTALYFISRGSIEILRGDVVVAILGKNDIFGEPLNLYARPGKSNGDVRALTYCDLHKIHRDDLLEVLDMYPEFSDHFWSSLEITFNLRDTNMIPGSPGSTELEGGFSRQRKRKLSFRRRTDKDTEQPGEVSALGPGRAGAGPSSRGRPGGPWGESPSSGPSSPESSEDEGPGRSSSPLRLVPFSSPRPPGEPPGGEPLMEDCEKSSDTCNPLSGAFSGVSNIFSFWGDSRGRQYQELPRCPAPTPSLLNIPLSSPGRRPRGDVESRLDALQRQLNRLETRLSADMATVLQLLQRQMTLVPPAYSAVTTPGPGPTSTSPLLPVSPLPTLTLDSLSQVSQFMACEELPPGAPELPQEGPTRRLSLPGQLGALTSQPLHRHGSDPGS

HERG+KCR1, sequence (Q12809 whole entry): as the sequence (A5H1P7 whole entry, one chain of several) above
HERG, sequence (Q12809 whole entry): as the sequence (A5H1P7 whole entry, one chain of several) above

With `CC(C)NC[C@@H](O)c1ccc(NS(C)(=O)=O)cc1` [d-sotalol] the “HERG tail current remaining, % of the pre-drug control” value (HERG) was 54±9% and the “HERG tail current remaining, % of the pre-drug control” value (HERG+KCR1) was 95±6%.
With rat KCR1 (from UniProt O88788 1-474) the fast time constant of deactivation at -120 mV, HERG+KCR1+MiRP1 (whole-cell patch clamp, CHO-K1 cells) [1] was 22.5 and the slow time constant of deactivation at -120 mV, HERG+KCR1+MiRP1 (whole-cell patch clamp, CHO-K1 cells) [1] was 251.
